Assay results published in US20100119599A1 (ARCHER PHARMACEUTICALS, INC., priority 2006, published 2010).

Columns and labels:
Aβ1-40 = test: Measurement of Aβ1-40 in culture medium of 7W WT APP751 CHO cells by ELISA; assay type: cell-based, Chinese hamster; conditions: for activity at 5 µM: Cricetulus griseus, Table 1, 5 μM test compound, CHO cells stably transfected with human APP751, culture medium, ELISA, control DMSO, 0 = no detectable amount; for Aβ1-40 (% of control): CHO cells that overexpress APP751, zero = below the detection limit of the assay
Aβ1-42 = test: Measurement of Aβ1-42 in culture medium of 7W WT APP751 CHO cells by ELISA; assay type: cell-based, Chinese hamster; conditions: for activity at 5 µM: Cricetulus griseus, Table 1, 5 μM test compound, CHO cells stably transfected with human APP751, culture medium, ELISA, control DMSO, 0 = no detectable amount, read-out: Aβ1-42 (% of control); for Aβ1-42 (% of control): CHO cells that overexpress APP751, zero = below the detection limit of the assay
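Further: 5 µM test compound but RI-coded compounds at 10 µM for 24 hours.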

SMILES	activity at 5 µM (Aβ1-40) [%]	activity at 5 µM (Aβ1-42) [%]	Aβ1-40 (% of control) (Aβ1-40)	Aβ1-42 (% of control) (Aβ1-42)
CC1=C(C(=O)OCCc2ccccc2)C(c2ccc(Cl)c(Cl)c2)C2=C(CCCC2=O)N1 (stereo not drawn) [ST015098, 2-phenylethyl 4-(3,4-dichlorophenyl)-2-methyl-5-oxo-1,4,6,7,8-pentahydroquinoline-3-carboxylate]	40.9	0		
CC1=C(C(=O)Nc2ccccc2)C(c2cccs2)C(C#N)=C(SCC(=O)Nc2cccc(F)c2)N1 (stereo not drawn) [RI_13]			53.8 % of control	41.3 % of control
CCOC(=O)C1=CN(c2cc(C)ccc2C)C=C(C(=O)OCC)C1c1cc(OC)c(OC)cc1OC [ST052474, ethyl 1-(2,5-dimethylphenyl)-5-(ethoxycarbonyl)-4-(2,4,5-trimethoxyphenyl)-1,4-dihydropyridine-3-carboxylate]			5.404 % of control	3.498 % of control
COc1cc(C2C(C(=O)OC3CCCCC3)=C(C)NC3=C2C(=O)CC(c2ccccc2)C3)cc(Cl)c1O (stereo not drawn) [ST017050, cyclohexyl 4-(3-chloro-4-hydroxy-5-methoxyphenyl)-2-methyl-5-oxo-7-phenyl-1,4,6,7,8-pentahydroquinoline-3-carboxylate]	39.6	22.2		
CCCCOc1ccccc1C1C(C(=O)OCCc2ccccc2)=C(C)NC2=C1C(=O)CC(C)(C)C2 (stereo not drawn) [ST014907, 2-phenylethyl 4-(2-butoxyphenyl)-2,7,7-trimethyl-5-oxo-1,4,6,7,8-pentahydroquinoline-3-carboxylate]	34.6	83.5		
CCOC(=O)C1=C(C)N(c2nonc2NC(C)=O)C(N)=C(C#N)C1c1ccc(Cl)cc1Cl (stereo not drawn) [ST026470, ethyl 1-[4-(acetylamino)(1,2,5-oxadiazol-3-yl)]-6-amino-4-(2,4-dichlorophenyl)-5-cyano-2-methyl-1,4-dihydropyridine-3-carboxylate]			81.7 % of control	67.48 % of control
CCc1cccc(NC(=O)CSC2=C(C#N)C(c3ccc(-c4cccs4)s3)C(C(=O)Nc3ccccc3)=C(C)N2)c1 (stereo not drawn) [RI_90]			63.9 % of control	42.9 % of control
CCCOc1ccc(C2C(C(=O)OC(C)CC)=C(C)NC3=C2C(=O)CC(c2ccc(Cl)cc2)C3)cc1 (stereo not drawn) [ST017093, methylpropyl 7-(4-chlorophenyl)-2-methyl-5-oxo-4-(4-propoxyphenyl)-1,4,6,7,8-pentahydroquinoline-3-carboxylate]	46.8	95		
CC1=C(C(=O)Nc2ccccc2)C(c2ccsc2)C(C#N)=C(SCC(=O)Nc2ccc(Br)cc2)N1 (stereo not drawn) [RI_73]			24.3 % of control	34.9 % of control
COc1cc(C2C(C(=O)OCc3ccccc3)=C(C)NC3=C2C(=O)CCC3)cc(Br)c1O (stereo not drawn) [ST013249, phenylmethyl 4-(3-bromo-4-hydroxy-5-methoxyphenyl)-2-methyl-5-oxo-1,4,6,7,8-pentahydroquinoline-3-carboxylate]	0	68		
COC(=O)C1=CN(Cc2ccc3c(c2)OCO3)C=C(C(=O)OC)C1c1ccc(OC)c(OC)c1 [ST038114, methyl 1-(2H-benzo[3,4-d]1,3-dioxolen-5-ylmethyl)-4-(3,4-dimethoxyphenyl)-5-(methoxycarbonyl)-1,4-dihydropyridine-3-carboxylate]			48 % of control	95.92 % of control
CC1=C(C(=O)OCCOc2ccccc2)C(c2ccc(C(C)C)cc2)C2=C(CCCC2=O)N1 (stereo not drawn) [ST052247, 2-phenoxyethyl 2-methyl-4-[4-(methylethyl)phenyl]-5-oxo-1,4,6,7,8-pentahydroquinoline-3-carboxylate]	98	64.1		
C=CCOC(=O)C1=C(C)NC(S)=C(C#N)C1c1cccnc1 (stereo not drawn) [ST011596, prop-2-enyl 5-cyano-2-methyl-4-(3-pyridyl)-6-sulfanyl-1,4-dihydropyridine-3-carboxylate]			66.77 % of control	86.14 % of control
CCCCOC(=O)C1=C(C)NC2=C(C(=O)CC(C)(C)C2)C1c1ccccc1[N+](=O)[O-] (stereo not drawn) [ST215464, butyl 2,7,7-trimethyl-4-(2-nitrophenyl)-5-oxo-1,4,6,7,8-pentahydroquinoline-3-carboxylate]	62.7	90.7		
CC1=C(C(=O)OCCOc2ccccc2)C(c2ccc(OCc3ccccc3)cc2)C2=C(CCCC2=O)N1 (stereo not drawn) [ST014899, 2-phenoxyethyl 2-methyl-5-oxo-4-[4-(phenylmethoxy)phenyl]-1,4,6,7,8-pentahydroquinoline-3-carboxylate]	55.6	65.5		
CC1=C(C(=O)Nc2ccccc2)C(c2cccs2)C(C#N)=C(SCC(=O)Nc2cc(C)cc(C)c2)N1 (stereo not drawn) [RI_11]			52.1 % of control	35.8 % of control
CC1=C(C(=O)Nc2ccccc2)C(c2ccsc2)C(C#N)=C(SCC(=O)Nc2cccc(C)c2)N1 (stereo not drawn) [RI_39]			72 % of control	72 % of control

SMILES	activity at 5 µM (Aβ1-40) [%]	activity at 5 µM (Aβ1-42) [%]	Aβ1-40 (% of control) (Aβ1-40)	Aβ1-42 (% of control) (Aβ1-42)
CC1=C(C(=O)OCCc2ccccc2)C(c2cccc(Cl)c2)C2=C(CC(C)(C)CC2=O)N1 (stereo not drawn) [ST015084, 2-phenylethyl 4-(3-chlorophenyl)-2,7,7-trimethyl-5-oxo-1,4,6,7,8-pentahydroquinoline-3-carboxylate]	59.5	80.2		
COc1ccc(NC(=O)CSC2=C(C#N)C(c3ccsc3)C(C(=O)Nc3ccccc3)=C(C)N2)cc1 (stereo not drawn) [RI_59]			27.7 % of control	30.6 % of control
CC1=C(C(=O)OCCc2ccccc2)C(c2ccc(C(F)(F)F)cc2)C2=C(CCCC2=O)N1 (stereo not drawn) [ST052320, 2-phenylethyl 2-methyl-5-oxo-4-[4-(trifluoromethyl)phenyl]-1,4,6,7,8-pentahydroquinoline-3-carboxylate]	9.44	0		
COC(=O)C1=C(C)N(C)C(C)=C(C(=O)OC)C1c1ccccn1 [ST024568, methyl 5-(methoxycarbonyl)-1,2,6-trimethyl-4-(2-pyridyl)-1,4-dihydropyridine-3-carboxylate]			67.61 % of control	70.13 % of control
COC(=O)C1=C(C)NC2=C(C(=O)CC(c3ccc(Cl)cc3)C2)C1c1ccccc1F (stereo not drawn) [ST015216, methyl 7-(4-chlorophenyl)-4-(2-fluorophenyl)-2-methyl-5-oxo-1,4,6,7,8-pentahydroquinoline-3-carboxylate]	68.4	93.2		
CCCOc1ccccc1C1C(C(=O)OCc2ccccc2)=C(C)NC2=C1C(=O)CCC2 (stereo not drawn) [ST014957, phenylmethyl 2-methyl-5-oxo-4-(2-propoxyphenyl)-1,4,6,7,8-pentahydroquinoline-3-carboxylate]	0	62.8		
CC1(C)CC(=O)C2=C(C1)N(c1ccc(Br)cc1)C(N)=C(C#N)C2c1ccc(C(C)(C)C)s1 (stereo not drawn) [ST052026, 2-amino-4-[5-(tert-butyl)(2-thienyl)]-1-(4-bromophenyl)-7,7-dimethyl-5-oxo-1,4,6,7,8-pentahydroquinoline-3-carbonitrile]	13.5	25.3		
N#CC1=C(N)n2c(s/c(=C/c3ccncc3)c2=O)=C(C#N)C1c1ccncc1 (stereo not drawn) [ST211853, 5-amino-3-oxo-7-(4-pyridyl)-2-(4-pyridylmethylene)-4,7-dihydro-1,3-thiazolidino[3,2-a]pyridine-6,8-dicarbonitrile]			49 % of control	18.37 % of control
COc1ccc(C2CC(=O)C3=C(C2)NC(C)=C(C(=O)OCc2ccccc2)C3c2ccncc2)cc1 (stereo not drawn) [ST017266, phenylmethyl 7-(4-methoxyphenyl)-2-methyl-5-oxo-4-(4-pyridyl)-1,4,6,7,8-pentahydroquinoline-3-carboxylate]	65.5	64.6		
CCCCOC(=O)C1=C(C)NC2=C(C(=O)CC(C)(C)C2)C1c1cccc(I)c1 (stereo not drawn) [ST056056, butyl 4-(3-iodophenyl)-2,7,7-trimethyl-5-oxo-1,4,6,7,8-pentahydroquinoline-3-carboxylate]	6.56	12.3		
CCc1cccc(NC(=O)CSC2=C(C#N)C(c3ccc(C)s3)C(C(=O)Nc3ccccc3)=C(C)N2)c1 (stereo not drawn) [RI_78]			77.32 % of control	88.1 % of control
CCCOC(=O)C1=C(C)NC2=C(C(=O)CCC2)C1c1ccc(Br)cc1 (stereo not drawn) [ST017259, propyl 4-(4-bromophenyl)-2-methyl-5-oxo-1,4,6,7,8-pentahydroquinoline-3-carboxylate]	65.5	87		
COc1cc(/C=c2\sc3n(c2=O)C(N)=C(C#N)C(c2ccc(OC(C)C)c(OC)c2)C=3C#N)ccc1OC(C)C (stereo not drawn) [ST025029, 5-amino-7-[3-methoxy-4-(methylethoxy)phenyl]-2-{[3-methoxy-4-(methylethoxy)phenyl]methylene}-3-oxo-4,7-dihydro-1,3-thiazolidino[3,2-a]pyridine-6,8-dicarbonitrile]			65.7 % of control	73.69 % of control
CC1=C(C(=O)OCC(C)C)C(c2cccc3ccccc23)C2=C(CCCC2=O)N1 (stereo not drawn) [ST052365, 2-methylpropyl 2-methyl-4-naphthyl-5-oxo-1,4,6,7,8-pentahydroquinoline-3-carboxylate]	59.1	72.8		
N#CC1=C(N)n2c(s/c(=C\c3ccccc3)c2=O)=C(C#N)C1c1ccccc1 (stereo not drawn) [RI_95]			67.9 % of control	69.9 % of control
N#CC1=C(N)NC(SCC(N)=O)=C(C#N)C1c1ccccc1F (stereo not drawn) [RI_2]			100.9 % of control	44.4 % of control
